From ChEMBL document CHEMBL2429768, “Eco-friendly synthesis and antimicrobial activities of substituted-5-(1H-indol-3-yl)methylene)-2,2-dimethyl-1,3-dioxane-4,6-dione derivatives” (2013)
Values after ≈ are worked out from the molar mass of the structure shown.

Tests used:
Type in all cases: functional
Escherichia coli [1] = experiment: Antibacterial activity against Escherichia coli ATCC 8739 at 200 ug/ml after 24 hrs by agar well diffusion method; settings: ATCC 8739, 24 h, read-out: DIZ
Fusarium oxysporum [2] = experiment: Antifungal activity against Fusarium oxysporum at 200 ug/ml after 72 hrs by agar well diffusion method; settings: read-out: DIZ
Klebsiella pneumoniae [3] = experiment: Antibacterial activity against Klebsiella pneumoniae at 50 ug/ml after 24 hrs by agar well diffusion method; settings: read-out: DIZ
Rhizoctonia solani [4] = experiment: Antifungal activity against Rhizoctonia solani at 200 ug/ml after 72 hrs by agar well diffusion method; settings: read-out: DIZ
Staphylococcus aureus [5] = experiment: Antibacterial activity against Staphylococcus aureus ATCC 6538 at 50 ug/ml after 24 hrs by agar well diffusion method; settings: ATCC 6538, 24 h, read-out: DIZ
Fusarium oxysporum [6] = experiment: Antifungal activity against Fusarium oxysporum at 100 ug/ml after 72 hrs by agar well diffusion method; settings: read-out: DIZ
Staphylococcus aureus [7] = experiment: Antibacterial activity against Staphylococcus aureus ATCC 6538 at 500 ug/ml after 24 hrs by agar well diffusion method; settings: ATCC 6538, 24 h, read-out: DIZ
Escherichia coli [8] = experiment: Antibacterial activity against Escherichia coli ATCC 8739 at 300 ug/ml after 24 hrs by agar well diffusion method; settings: ATCC 8739, 24 h, read-out: DIZ
Rhizoctonia solani [9] = experiment: Antifungal activity against Rhizoctonia solani at 100 ug/ml after 72 hrs by agar well diffusion method; settings: read-out: DIZ
Klebsiella pneumoniae [10] = experiment: Antibacterial activity against Klebsiella pneumoniae at 300 ug/ml after 24 hrs by agar well diffusion method; settings: read-out: DIZ
Aspergillus niger [11] = experiment: Antifungal activity against Aspergillus niger at 200 ug/ml after 72 hrs by agar well diffusion method; settings: read-out: DIZ
Staphylococcus aureus [12] = experiment: Antibacterial activity against Staphylococcus aureus ATCC 6538 at 300 ug/ml after 24 hrs by agar well diffusion method; settings: ATCC 6538, 24 h, read-out: DIZ
Staphylococcus aureus [13] = experiment: Antibacterial activity against Staphylococcus aureus ATCC 6538 after 24 hrs by agar well diffusion method; settings: ATCC 6538, 24 h
Escherichia coli [14] = experiment: Antibacterial activity against Escherichia coli ATCC 8739 at 50 ug/ml after 24 hrs by agar well diffusion method; settings: ATCC 8739, 24 h, read-out: DIZ
Bacillus subtilis [15] = experiment: Antibacterial activity against Bacillus subtilis after 24 hrs by agar well diffusion method
Rhizoctonia solani [16] = experiment: Antifungal activity against Rhizoctonia solani after 72 hrs by agar well diffusion method
Aspergillus niger [17] = experiment: Antifungal activity against Aspergillus niger at 100 ug/ml after 72 hrs by agar well diffusion method; settings: read-out: DIZ
Staphylococcus aureus [18] = experiment: Antibacterial activity against Staphylococcus aureus ATCC 6538 at 100 ug/ml after 24 hrs by agar well diffusion method; settings: ATCC 6538, 24 h, read-out: DIZ
Rhizoctonia solani [19] = experiment: Antifungal activity against Rhizoctonia solani at 500 ug/ml after 72 hrs by agar well diffusion method; settings: read-out: DIZ
Bacillus subtilis [20] = experiment: Antibacterial activity against Bacillus subtilis at 50 ug/ml after 24 hrs by agar well diffusion method; settings: read-out: DIZ
Aspergillus flavus [21] = experiment: Antifungal activity against Aspergillus flavus at 50 ug/ml after 72 hrs by agar well diffusion method; settings: read-out: DIZ
Aspergillus flavus [22] = experiment: Antifungal activity against Aspergillus flavus at 200 ug/ml after 72 hrs by agar well diffusion method; settings: read-out: DIZ
Bacillus subtilis [23] = experiment: Antibacterial activity against Bacillus subtilis at 500 ug/ml after 24 hrs by agar well diffusion method; settings: read-out: DIZ
Aspergillus niger [24] = experiment: Antifungal activity against Aspergillus niger at 500 ug/ml after 72 hrs by agar well diffusion method; settings: read-out: DIZ
Fusarium oxysporum [25] = experiment: Antifungal activity against Fusarium oxysporum at 300 ug/ml after 72 hrs by agar well diffusion method; settings: read-out: DIZ
Staphylococcus aureus [26] = experiment: Antibacterial activity against Staphylococcus aureus ATCC 6538 at 200 ug/ml after 24 hrs by agar well diffusion method; settings: ATCC 6538, 24 h, read-out: DIZ
Bacillus subtilis [27] = experiment: Antibacterial activity against Bacillus subtilis at 200 ug/ml after 24 hrs by agar well diffusion method; settings: read-out: DIZ
Fusarium oxysporum [28] = experiment: Antifungal activity against Fusarium oxysporum at 500 ug/ml after 72 hrs by agar well diffusion method; settings: read-out: DIZ
Aspergillus niger [29] = experiment: Antifungal activity against Aspergillus niger at 50 ug/ml after 72 hrs by agar well diffusion method; settings: read-out: DIZ
Escherichia coli [30] = experiment: Antibacterial activity against Escherichia coli ATCC 8739 after 24 hrs by agar well diffusion method; settings: ATCC 8739, 24 h
Aspergillus niger [31] = experiment: Antifungal activity against Aspergillus niger after 72 hrs by agar well diffusion method
Rhizoctonia solani [32] = experiment: Antifungal activity against Rhizoctonia solani at 50 ug/ml after 72 hrs by agar well diffusion method; settings: read-out: DIZ
Fusarium oxysporum [33] = experiment: Antifungal activity against Fusarium oxysporum at 50 ug/ml after 72 hrs by agar well diffusion method; settings: read-out: DIZ
Fusarium oxysporum [34] = experiment: Antifungal activity against Fusarium oxysporum after 72 hrs by agar well diffusion method
Aspergillus flavus [35] = experiment: Antifungal activity against Aspergillus flavus after 72 hrs by agar well diffusion method
Aspergillus flavus [36] = experiment: Antifungal activity against Aspergillus flavus at 100 ug/ml after 72 hrs by agar well diffusion method; settings: read-out: DIZ
Aspergillus flavus [37] = experiment: Antifungal activity against Aspergillus flavus at 300 ug/ml after 72 hrs by agar well diffusion method; settings: read-out: DIZ
Bacillus subtilis [38] = experiment: Antibacterial activity against Bacillus subtilis at 300 ug/ml after 24 hrs by agar well diffusion method; settings: read-out: DIZ
Aspergillus flavus [39] = experiment: Antifungal activity against Aspergillus flavus at 500 ug/ml after 72 hrs by agar well diffusion method; settings: read-out: DIZ
Klebsiella pneumoniae [40] = experiment: Antibacterial activity against Klebsiella pneumoniae at 500 ug/ml after 24 hrs by agar well diffusion method; settings: read-out: DIZ
Klebsiella pneumoniae [41] = experiment: Antibacterial activity against Klebsiella pneumoniae after 24 hrs by agar well diffusion method
Escherichia coli [42] = experiment: Antibacterial activity against Escherichia coli ATCC 8739 at 100 ug/ml after 24 hrs by agar well diffusion method; settings: ATCC 8739, 24 h, read-out: DIZ
Klebsiella pneumoniae [43] = experiment: Antibacterial activity against Klebsiella pneumoniae at 100 ug/ml after 24 hrs by agar well diffusion method; settings: read-out: DIZ
Klebsiella pneumoniae [44] = experiment: Antibacterial activity against Klebsiella pneumoniae at 200 ug/ml after 24 hrs by agar well diffusion method; settings: read-out: DIZ
Rhizoctonia solani [45] = experiment: Antifungal activity against Rhizoctonia solani at 300 ug/ml after 72 hrs by agar well diffusion method; settings: read-out: DIZ
Aspergillus niger [46] = experiment: Antifungal activity against Aspergillus niger at 300 ug/ml after 72 hrs by agar well diffusion method; settings: read-out: DIZ
Bacillus subtilis [47] = experiment: Antibacterial activity against Bacillus subtilis at 100 ug/ml after 24 hrs by agar well diffusion method; settings: read-out: DIZ
Escherichia coli [48] = experiment: Antibacterial activity against Escherichia coli ATCC 8739 at 500 ug/ml after 24 hrs by agar well diffusion method; settings: ATCC 8739, 24 h, read-out: DIZ

Cn1cc(C=C2C(=O)OC(C)(C)OC2=O)c2cc(Br)ccc21
zone of inhibition at 200 µg/mL (Escherichia coli [1]): 14 mm | zone of inhibition at 200 µg/mL (Fusarium oxysporum [2]): 16 mm | zone of inhibition at 50 µg/mL (Klebsiella pneumoniae [3]): 9 mm | zone of inhibition at 200 µg/mL (Rhizoctonia solani [4]): 16 mm | zone of inhibition at 50 µg/mL (Staphylococcus aureus [5]): 6 mm | zone of inhibition at 100 µg/mL (Fusarium oxysporum [6]): 12 mm | zone of inhibition at 500 µg/mL (Staphylococcus aureus [7]): 25 mm | zone of inhibition at 300 µg/mL (Escherichia coli [8]): 21 mm | zone of inhibition at 100 µg/mL (Rhizoctonia solani [9]): 12 mm | zone of inhibition at 300 µg/mL (Klebsiella pneumoniae [10]): 23 mm | zone of inhibition at 200 µg/mL (Aspergillus niger [11]): 14 mm | zone of inhibition at 300 µg/mL (Staphylococcus aureus [12]): 17 mm | MIC (Staphylococcus aureus [13]): 25 µg/mL (≈ 68.6 µM) | zone of inhibition at 50 µg/mL (Escherichia coli [14]): 8.4 mm | MIC (Bacillus subtilis [15]): 30 µg/mL (≈ 82.4 µM) | MIC (Rhizoctonia solani [16]): 35 µg/mL (≈ 96.1 µM) | zone of inhibition at 100 µg/mL (Aspergillus niger [17]): 10 mm | zone of inhibition at 100 µg/mL (Staphylococcus aureus [18]): 10 mm | zone of inhibition at 500 µg/mL (Rhizoctonia solani [19]): 29 mm | zone of inhibition at 50 µg/mL (Bacillus subtilis [20]): 5 mm | zone of inhibition at 50 µg/mL (Aspergillus flavus [21]): 4 mm | zone of inhibition at 200 µg/mL (Aspergillus flavus [22]): 12 mm | zone of inhibition at 500 µg/mL (Bacillus subtilis [23]): 23 mm | zone of inhibition at 500 µg/mL (Aspergillus niger [24]): 25 mm | zone of inhibition at 300 µg/mL (Fusarium oxysporum [25]): 21 mm | zone of inhibition at 200 µg/mL (Staphylococcus aureus [26]): 13 mm | zone of inhibition at 200 µg/mL (Bacillus subtilis [27]): 11 mm | zone of inhibition at 500 µg/mL (Fusarium oxysporum [28]): 29 mm | zone of inhibition at 50 µg/mL (Aspergillus niger [29]): 6 mm | MIC (Escherichia coli [30]): 15 µg/mL (≈ 41.2 µM) | MIC (Aspergillus niger [31]): 40 µg/mL (≈ 110 µM) | zone of inhibition at 50 µg/mL (Rhizoctonia solani [32]): 7 mm | zone of inhibition at 50 µg/mL (Fusarium oxysporum [33]): 7 mm | MIC (Fusarium oxysporum [34]): 35 µg/mL (≈ 96.1 µM) | MIC (Aspergillus flavus [35]): 40 µg/mL (≈ 110 µM) | zone of inhibition at 100 µg/mL (Aspergillus flavus [36]): 9 mm | zone of inhibition at 300 µg/mL (Aspergillus flavus [37]): 15 mm | zone of inhibition at 300 µg/mL (Bacillus subtilis [38]): 15 mm | zone of inhibition at 500 µg/mL (Aspergillus flavus [39]): 23 mm | zone of inhibition at 500 µg/mL (Klebsiella pneumoniae [40]): 32 mm | MIC (Klebsiella pneumoniae [41]): 15 µg/mL (≈ 41.2 µM) | zone of inhibition at 100 µg/mL (Escherichia coli [42]): 13.5 mm | zone of inhibition at 100 µg/mL (Klebsiella pneumoniae [43]): 14 mm | zone of inhibition at 200 µg/mL (Klebsiella pneumoniae [44]): 18 mm | zone of inhibition at 300 µg/mL (Rhizoctonia solani [45]): 21 mm | zone of inhibition at 300 µg/mL (Aspergillus niger [46]): 18 mm | zone of inhibition at 100 µg/mL (Bacillus subtilis [47]): 9.5 mm | zone of inhibition at 500 µg/mL (Escherichia coli [48]): 30 mm

CN[C@@H]1[C@H](O[C@H]2[C@H](O[C@H]3[C@H](O)[C@@H](O)[C@H](N=C(N)N)[C@@H](O)[C@@H]3N=C(N)N)O[C@@H](C)[C@]2(O)C=O)O[C@@H](CO)[C@H](O)[C@H]1O [STREPTOMYCIN]
zone of inhibition at 200 µg/mL (Escherichia coli [1]): 23 mm | zone of inhibition at 50 µg/mL (Klebsiella pneumoniae [3]): 13 mm | zone of inhibition at 50 µg/mL (Staphylococcus aureus [5]): 10 mm | zone of inhibition at 500 µg/mL (Staphylococcus aureus [7]): 31 mm | zone of inhibition at 300 µg/mL (Escherichia coli [8]): 26 mm | zone of inhibition at 300 µg/mL (Klebsiella pneumoniae [10]): 28 mm | zone of inhibition at 300 µg/mL (Staphylococcus aureus [12]): 22 mm | MIC (Staphylococcus aureus [13]): 10 µg/mL (≈ 17.2 µM) | zone of inhibition at 50 µg/mL (Escherichia coli [14]): 12 mm | MIC (Bacillus subtilis [15]): 20 µg/mL (≈ 34.4 µM) | zone of inhibition at 100 µg/mL (Staphylococcus aureus [18]): 15 mm | zone of inhibition at 50 µg/mL (Bacillus subtilis [20]): 9 mm | zone of inhibition at 500 µg/mL (Bacillus subtilis [23]): 28 mm | zone of inhibition at 200 µg/mL (Staphylococcus aureus [26]): 19 mm | zone of inhibition at 200 µg/mL (Bacillus subtilis [27]): 17 mm | MIC (Escherichia coli [30]): 5 µg/mL (≈ 8.6 µM) | zone of inhibition at 300 µg/mL (Bacillus subtilis [38]): 20 mm | zone of inhibition at 500 µg/mL (Klebsiella pneumoniae [40]): 37 mm | MIC (Klebsiella pneumoniae [41]): 5 µg/mL (≈ 8.6 µM) | zone of inhibition at 100 µg/mL (Escherichia coli [42]): 17 mm | zone of inhibition at 100 µg/mL (Klebsiella pneumoniae [43]): 18 mm | zone of inhibition at 200 µg/mL (Klebsiella pneumoniae [44]): 24 mm | zone of inhibition at 100 µg/mL (Bacillus subtilis [47]): 14 mm | zone of inhibition at 500 µg/mL (Escherichia coli [48]): 36 mm
